From patent US11702404B2, “GLP-1R modulating compounds” (priority 2019, dated 2023)

How the values were obtained:
GLP-1R = GLP-1R (Homo sapiens, UniProt P43220); assay: GLP-1R activation: cAMP increase in CHO cells stably expressing GLP-1R; format: cell-based; settings: cAMP increase, CHO cells stably expressing GLP-1R, 10 point dose response, 30 minutes incubation; read-out: EC50
[1] = Microsomal stability, human liver microsomes (predicted hepatic clearance); settings: predicted from in vitro microsomal stability data

GLP-1R, sequence (P43220 24-463): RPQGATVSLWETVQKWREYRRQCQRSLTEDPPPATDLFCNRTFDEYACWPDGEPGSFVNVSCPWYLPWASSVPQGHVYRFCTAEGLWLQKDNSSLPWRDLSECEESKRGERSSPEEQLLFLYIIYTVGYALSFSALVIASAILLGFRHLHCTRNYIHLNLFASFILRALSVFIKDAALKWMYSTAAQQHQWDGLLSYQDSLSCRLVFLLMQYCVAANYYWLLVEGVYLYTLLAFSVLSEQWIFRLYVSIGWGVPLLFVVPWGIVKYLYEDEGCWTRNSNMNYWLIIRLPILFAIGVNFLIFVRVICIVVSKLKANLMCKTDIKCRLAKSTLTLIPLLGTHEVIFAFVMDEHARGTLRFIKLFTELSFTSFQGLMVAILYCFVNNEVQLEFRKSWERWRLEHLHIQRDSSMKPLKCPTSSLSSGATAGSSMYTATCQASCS

EC50 (GLP-1R) [nM] | Predicted Hepatic Clearance (Pred. Cl.) [1] [L/h/kg] | SMILES
32.9 | 0.34 | COCCn1c(Cc2c(F)cc(-c3cccnc3OCc3ccc(Cl)cc3F)cc2F)nc2ccc(C(=O)O)cc21 [Example 174, 2-(4-(2-((4-chloro-2-fluorobenzyl)oxy)pyridin-3-yl)-2,6-difluorobenzyl)-1-(2-methoxyethyl)-1H-benzo[d]imidazole-carboxylic acid]
9270 | 0.94 | COCCn1c(Cc2ccc(-c3cccc(OCc4ccc(C#N)cc4F)n3)cc2-c2ccncc2)nc2ccc(C(=O)O)cc21 [Example 175, 2-(4-(6-((4-cyano-2-fluorobenzyl)oxy)pyridin-2-yl)-2-(pyridin-4-yl)benzyl)-1-(2-methoxyethyl)-1H-benzo[d]imidazole-6-carboxylic acid]
273 | <0.11 | COCCn1c(Cc2ccc(-c3cccc(OCc4ccc(C#N)cc4F)n3)cc2-c2ccsc2)nc2ccc(C(=O)O)cc21 [Example 176, 2-(4-(6-((4-cyano-2-fluorobenzyl)oxy)pyridin-2-yl)-2-(thiophen-3-yl)benzyl)-1-(2-methoxyethyl)-1H-benzo[d]imidazole-6-carboxylic acid]
335 | 0.42 | COCCn1c(Cc2c(F)cc(-c3nccnc3OCc3ccc(C#N)cc3F)cc2F)nc2ccc(C(=O)O)cc21 [Example 177, 2-(4-(3-((4-cyano-2-fluorobenzyl)oxy)pyrazin-2-yl)-2,6-difluorobenzyl)-1-(2-methoxyethyl)-1H-benzo[d]imidazole-carboxylic acid]
32.5 | 0.59 | COCCn1c(Cc2ccc(-c3cccc(OCc4ccc(C#N)cc4F)n3)cc2C2CC2)nc2ccc(C(=O)O)cc21 [Example 178, 2-(4-(6-((4-cyano-2-fluorobenzyl)oxy)pyridin-2-yl)-2-cyclopropylbenzyl)-1-(2-methoxyethyl)-1H-benzo[d]imidazole-6-carboxylic acid]
45.6 | 0.21 | COCCn1c(Cc2c(F)cc(-c3cccnc3OCc3ccc(C#N)cc3F)cc2F)nc2ccc(C(=O)O)cc21 [Example 179, 2-(4-(2-((4-cyano-2-fluorobenzyl)oxy)pyridin-3-yl)-2,6-difluorobenzyl)-1-(2-methoxyethyl)-1H-benzo[d]imidazole-carboxylic acid]
257 | 0.38 | COCCn1c(Cc2ccc(-c3cccnc3OCc3ccc(C#N)cc3F)cc2F)nc2ccc(C(=O)O)cc21 [Example 180, 2-(4-(2-((4-cyano-2-fluorobenzyl)oxy)pyridin-3-yl)-2-fluorobenzyl)-1-(2-methoxyethyl)-1H-benzo[d]imidazole-carboxylic acid]
15.5 | 0.17 | COCCn1c(Cc2ccc(-c3cccc(OCc4ccc(C#N)cc4F)n3)cc2O)nc2ccc(C(=O)O)cc21 [Example 181, 2-(4-(6-((4-cyano-2-fluorobenzyl)oxy)pyridin-2-yl)-2-hydroxybenzyl)-1-(2-methoxyethyl)-1H-benzo[d]imidazole-6-carboxylic acid]
449 | 0.46 | COCCn1c(Cc2ccc(-c3ccccc3OCc3ccc(C#N)cc3F)cc2F)nc2ccc(C(=O)O)cc21 [Example 182, 2-((2′-((4-cyano-2-fluorobenzyl)oxy)-3-fluoro-[1,1′-biphenyl]-4-yl)methyl)-1-(2-methoxyethyl)-1H-benzo[d]imidazole-carboxylic acid]

SMILES | EC50 (GLP-1R) [nM] | Predicted Hepatic Clearance (Pred. Cl.) [1] [L/h/kg]
COCCn1c(Cc2ccc(-c3cccc(OCc4ccc(C#N)cc4F)n3)cc2C2=CCN(C(=O)OC(C)(C)C)CC2)nc2ccc(C(=O)O)cc21 [Example 173, 2-(2-(1-(tert-butoxycarbonyl)-1,2,3,6-tetrahydropyridin-4-yl)-4-(6-((4-cyano-2-fluorobenzyl)oxy)pyridin-2-yl)benzyl)-1-(2-methoxyethyl)-1H-benzo[d]imidazole-6-carboxylic acid] | 774 | 0.3
